The data set is described as follows: Drug plasma levels in the Example 9 trial. The settings on record: 10 mg single oral dose.

Source text: Non-elderly adults were enrolled in a cross-over, double-blind trial. […] Drug plasma levels were obtained at the same times.

Turning to `CCN(C(C)=O)c1cccc(-c2ccnc3c(C#N)cnn23)c1` [zaleplon, N-[3-(3-cyanopyrazole[1,5-a]pyrimidin-7-yl)phenyl]-N-ethylacetamide], the “Time post-dose at which drug plasma levels peaked” value is 1.5 h.

(Values after patent US20120039954A1, “METHOD OF TREATING INSOMNIA” (SOMNUS THERAPEUTICS, INC., priority 2008, published 2012).)
